Assay results published in patent US7615361B2, “Toxicity screening methods” (Ceetox, Inc., priority 2006, dated 2009).
Values after ≈ are worked out from the molar mass of the structure shown. Where two headings read alike, the source gives them in different places.

Legend:
[1] = MemTox membrane leakage (AK / α-GST); format: cell-based, rat
Protocol: (§1) One test compound (Compound A) was received as dry powder and evaluated for potential cytotoxicity in a battery of in vitro assays. The compound was tested using both rat cardiomyocytes (CM) from rat neonates and a rat hepatoma (H4IIE) cell line. […] The cell supernatant or the cells themselves were harvested for biochemical analysis. General cytotoxicity was evaluated by monitoring membrane integrity, mitochondrial function, cell proliferation, oxidative stress, and apoptosis. In addition, interaction with P-glycoprotein (PgP) on H4IIE cells and solubility of the test compound were also assessed. The means of each exposure group (n=3-7) were calculated for each assay performed.
Membrane Leakage (α-Glutathione S-transferase and/or Adenylate Kinase): The presence of Adenylate Kinase (AK) or α-Glutathione S-transferase (α-GST), both enzyme leakage markers, was measured in the culture medium using an activity assay for Adenylate Kinase and/or an ELISA assay for α-GST. At the end of the exposure period, the medium covering the cells in each well was removed and placed into new 96-well plates with appropriate labeling. […] Luminescence (AK) values were measured with a Packard Fusion or equivalent plate reader, and absorbance (α-GST) values were measured with a Packard SpectraCount™ or equivalent reader at 450 nm and reference absorbance at 650 nm.
Membrane Leakage (α-Glutathione S-transferase and/or Adenylate Kinase): Leakage of Adenylate Kinase or α-GST from the cell into the culture medium was determined by collecting the culture medium at the end of the exposure period. Thus, the values measured represent total enzyme leakage lost over the exposure period. The control for 100% dead or maximum enzyme release was based on cells treated with 1 mM digitonin at the time of dosing. Percent dead cells relative to digitonin treated cells was determined and then subtracted from 100% to yield the percent live cells.

MTT reduction = format: cell-based, rat
Protocol: as §1
Tetrazolium Dye Reduction: 3-[4,5-dimethylthiazol-2-yl]

H4IIE cells [2] = assay: Predicted Ctox from Tox-Panel; format: cell-based, rat; conditions: 24 HR, estimated sustained plasma concentration where toxicity would be expected in vivo
Protocol: Once all data for a given cluster of assays are received, the data are analyzed to obtain a detailed profile of the compound's toxicity. For example, most conveniently, the data are collated over a dose response range on a single graph. In such an embodiment, the measurement evaluated for each parameter (i.e., each indicator of cell health) at any given concentration is plotted as a percentage of a control measurement obtained in the absence of the compound. However, it should be noted that the data need not be plotted on a single graph, so long as all the parameters are analyzed collectively to yield detailed information of the effects of the concentration of the compound on the different parameters to yield an overall toxicity profile. As set forth below, this overall toxicity profile will facilitate a determination of a plasma concentration Ctox that is predicted to be toxic in vivo. Ctox represents an estimate of the sustained plasma concentration in vivo that would result in toxicity, such as hepatotoxicity or hematopoietic toxicity.
Studies such as these indicate that a preferred concentration for setting Ctox is the highest concentration at which there is no observed effect on any of the indicators being measured in the cluster analysis, especially a 24-hour cluster analysis. […] It will be apparent that 24 hour assays are more time-effective, and consequently, the 24 hour NOEL/Ctox represents a preferred data point to select as Ctox in a CATS assay. It will also be apparent that, with further time studies, it may be possible to select an equally suitable Ctox at other CATS assay time points (e.g., between 24 and 72 hours, or less than 24 hours).
In certain embodiments, the predicting comprises performing concentration response analyses of measurements from at least three separate assays that are employed in the cluster analysis. For example, in the cell health cluster, such predicting will involve monitoring the concentration response effect of the compound on a first health indicator which monitors cellular replication, a second cell health indicator which monitors mitochondrial function, and a third cell health indicator which monitors membrane integrity. Of course, it is understood that fourth, fifth, sixth or more cell health indicators also may be employed. From these concentration response analyses, the highest concentration of the chemical compound at which a measurable toxic effect of the chemical compound is not observable, i.e. NOEL, is determined and the Ctox is identified as the concentration that correlates to the NOEL. In choosing the concentrations of the compound for analysis, one of skill in the art should devise a dose response regimen which is selected to provide an indication of cell health at concentrations of at least two concentration values higher than the Ctox concentration.
The Ctox (H4IIE) value was developed using 24 hr in vitro toxicity data and was validated by retrospectively evaluating compounds across different classes of drugs in 14-day rat studies in which compounds were administered on a daily basis and pharmacokinetic data was available. […] Thus, Ctox values are only determined for the 24 hr in vitro results. The 6 hr toxicity analyses are typically not performed but are beneficial for interpretation of results when compound toxicity is high (e.g., Ctox≦20 μM).

rat cardiomyocytes = assay: Membrane lipid peroxidation (8-isoprostane ELISA); format: cell-based
Protocol: (§2) One test compound (Compound A) was received as dry powder and evaluated for potential cytotoxicity in a battery of in vitro assays. The compound was tested using both rat cardiomyocytes (CM) from rat neonates and a rat hepatoma (H4IIE) cell line. […] Camptothecin and rotenone were included as positive control compounds. The cell supernatant or the cells themselves were harvested for biochemical analysis. General cytotoxicity was evaluated by monitoring membrane integrity, mitochondrial function, cell proliferation, oxidative stress, and apoptosis. In addition, interaction with P-glycoprotein (PgP) on H4IIE cells and solubility of the test compound were also assessed. The means of each exposure group (n=3-7) were calculated for each assay performed. Intra assay variation well-to-well was typically less than 10% with plate to plate variation typically less than 20%.

H4IIE cells [3] = assay: Membrane lipid peroxidation (8-isoprostane ELISA); format: cell-based, rat
Protocol: as §2
Experimental Protocol: The test compound was provided and stored at 4° C. until needed. Dosing solutions were prepared in complete culture medium. The rat hepatoma (H4IIE) cell line was used as the test system.

[4] = Solubility in culture medium (nephelometry); format: physicochemical; conditions: dosing medium with 20% serum, 37° C., read-out: Highest Soluble Concentration Tested
Protocol: Solubility: The test compounds were prepared in DMSO and the appropriate amounts were then added to complete medium containing 10% bovine serum […] at 37° C. The samples were evaluated using a light scattering technique and a Nephaloskan instrument.
Solubility Assay: The test compounds were prepared in DMSO and the appropriate amounts were then added to complete medium containing 10% bovine serum at 37° C. The samples were evaluated using a light scattering technique and a Nephaloskan instrument.

[5] = 37 °C, plasma or biological fluid, kinetic from dmso stock, H4IIE 24 HR
[6] = plasma or biological fluid, kinetic from dmso stock, CM 24 HR

solubility ([4]; CM 24 HR) | solubility ([4]; H4IIE 24 HR) | SMILES | CC50 at 24 h ([1]; rat) | CC50 at 24 h (MTT reduction; rat) | Predicted Ctox (H4IIE cells [2]) | Membrane Lipid Peroxidation (rat cardiomyocytes; rat, 24 h) | Membrane Lipid Peroxidation (H4IIE cells [3]; rat, 24 h) | other results
– | – | COc1cccc2c1C(=O)c1c(O)c3c(c(O)c1C2=O)C[C@@](O)(C(=O)CO)C[C@@H]3O[C@H]1C[C@H](N)[C@H](O)[C@H](C)O1 [ADRIAMYCIN, Adriamycin] | 7 µM | 1 µM | 1 µM | 0 | 0 | CC50 at 1 h ([1]; rat): > 300 µM; CC50 at 3 h ([1]; rat): > 300 µM; CC50 at 6 h ([1]; rat): 40 µM; CC50 at 1 h (MTT reduction; rat): > 300 µM; CC50 at 3 h (MTT reduction; rat): 41 µM; CC50 at 6 h (MTT reduction; rat): 18 µM; Predicted Ctox (H4IIE cells [2]; listed as DOXORUBICIN): 7 µM; Membrane Lipid Peroxidation (rat cardiomyocytes; rat, 1 h): 0; Membrane Lipid Peroxidation (rat cardiomyocytes; rat, 3 h): 0; Membrane Lipid Peroxidation (rat cardiomyocytes; rat, 6 h): 0; solubility ([4]; 37 °C, plasma or biological fluid, kinetic from dmso stock, CM 1 HR): 100 µM (≈ 54.4 µg/mL); solubility ([4]; 37 °C, plasma or biological fluid, kinetic from dmso stock, CM 3 HR): 100 µM (≈ 54.4 µg/mL); solubility ([4]; 37 °C, plasma or biological fluid, kinetic from dmso stock, CM 6 HR): 100 µM (≈ 54.4 µg/mL); solubility ([4]; 37 °C, plasma or biological fluid, kinetic from dmso stock, CM 24 HR): 100 µM (≈ 54.4 µg/mL); solubility [4, 5]: 100 µM (≈ 54.4 µg/mL); solubility ([4]; H4IIE 24 HR, listed as DOXORUBICIN): 300 µM (≈ 163 µg/mL)
– | – | COc1cccc2c1C(=O)c1c(O)c3c(c(O)c1C2=O)C[C@@](O)(C(=O)CO)C[C@@H]3O[C@H]1C[C@H](N)[C@H](O[C@@H]2CCCCO2)[C@H](C)O1 [PIRARUBICIN, pirarubicin] | – | – | 5 µM | – | – | CC50 at 24 h ([1]; neonatal rat cardiomyocytes, rat cardiomyocytes (CM), 24 HR exposure, read-out: MemTox TC50): 6 µM; CC50 at 24 h (MTT reduction; neonatal rat cardiomyocytes, rat cardiomyocytes (CM), 24 HR exposure, read-out: MTT TC50): 7 µM; Membrane Lipid Peroxidation (rat cardiomyocytes; CM, 24 HR): 0; Membrane Lipid Peroxidation (H4IIE cells [3]; H4IIE, 24 HR): 0; solubility [4, 6]: 50 µM (≈ 31.4 µg/mL)
– | – | COc1cccc2c1C(=O)c1c(O)c3c(c(O)c1C2=O)C[C@@](O)(C(C)=O)C[C@@H]3O[C@H]1C[C@H](N)[C@H](O)[C@H](C)O1 [DAUNORUBICIN, daunorubicin] | 4 µM | 6 µM | 3 µM | 0 | 0 | solubility [4, 6]: 100 µM (≈ 52.8 µg/mL)
300 µM (≈ 137 µg/mL) | 300 µM (≈ 137 µg/mL) | CC(C)Nc1cccnc1N1CCN(C(=O)c2cc3cc(NS(C)(=O)=O)ccc3[nH]2)CC1 [DELAVIRDINE, delavirdine] | 239 µM | 252 µM | 68 µM | 0 | – | –
300 µM (≈ 85.9 µg/mL) | 300 µM (≈ 85.9 µg/mL) | Nc1nc(NC2CC2)c2ncn([C@H]3C=C[C@@H](CO)C3)c2n1 [ABACAVIR, abacavir] | > 300 µM | > 300 µM | 65 µM | – | 0 | –
300 µM (≈ 94.7 µg/mL) | 300 µM (≈ 94.7 µg/mL) | O=C1Nc2ccc(Cl)cc2[C@@](C#CC2CC2)(C(F)(F)F)O1 [EFAVIRENZ, efavirenz] | 69 µM | 79 µM | 58 µM | – | 0 | –

SMILES | solubility ([4]; CM 24 HR) | solubility ([4]; H4IIE 24 HR) | CC50 at 24 h ([1]; rat) | CC50 at 24 h (MTT reduction; rat) | Predicted Ctox (H4IIE cells [2]) | Membrane Lipid Peroxidation (rat cardiomyocytes; rat, 24 h) | Membrane Lipid Peroxidation (H4IIE cells [3]; rat, 24 h) | other results
O=C1c2c(O)ccc(O)c2C(=O)c2c(NCCNCCO)ccc(NCCNCCO)c21 [MITOXANTRONE, mitoxantrone] | 300 µM (≈ 133 µg/mL) | 300 µM (≈ 133 µg/mL) | 2 µM | 1 µM | 11 µM | 0 | 0 | –
COc1cccc2c1C(=O)c1c(O)c3c(c(O)c1C2=O)C[C@@](O)(C(=O)CO)C[C@@H]3O[C@H]1C[C@H](N)[C@@H](O)[C@H](C)O1 [EPIRUBICIN, epirubicin] | 300 µM (≈ 163 µg/mL) | – | 35 µM | 16 µM | 8 µM | 0 | 0 | solubility [4, 5]: 100 µM (≈ 54.4 µg/mL)
